In the supplement of paper PMC10307832:

Experiments:
Experiment in all cases: relative viability (nuclei count vs DMSO), 5 days (fraction); higher = more cells survive
NCI-H322M = system: NCI-H322M
Method in brief: (§1)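 Relative viability divides the nuclei count in treated wells by that in vehicle wells. Lung cancer cell lines were seeded in 1536-well plates, dosed by pin tool the next day, and fixed and stained after 5 days in one step with final 0.05% Triton X-100, 1% formaldehyde and 1 ug/ml Hoechst. Dosing was a single drug or a fixed anchor-drug dose plus five library-drug doses (not always all listed) in √10 steps, and values are medians of duplicate plates imaged at 4×.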

NCI-H522 = system: NCI-H522
Method in brief: as §1

NCI-H1755 = system: NCI-H1755
Method in brief: as §1

RERF-LC-KJ = system: RERF-LC-KJ
Method in brief: as §1

SW 900 = system: SW 900
Method in brief: as §1

NCI-H520 = system: NCI-H520
Method in brief: as §1

NCI-H3122 = system: NCI-H3122
Method in brief: as §1

LXF-289 = system: LXF-289
Method in brief: as §1

NCI-H441 = system: NCI-H441
Method in brief: as §1

LCLC-103H = system: LCLC-103H
Method in brief: as §1

NCI-H1355 = system: NCI-H1355
Method in brief: as §1

NCI-H1792 = system: NCI-H1792
Method in brief: as §1

NCI-H1651 = system: NCI-H1651
Method in brief: as §1

NCI-H2347 = system: NCI-H2347
Method in brief: as §1

NCI-H460 = system: NCI-H460
Method in brief: as §1

NCI-H661 = system: NCI-H661
Method in brief: as §1

NCI-H727 = system: NCI-H727
Method in brief: as §1

NCI-H596 = system: NCI-H596
Method in brief: as §1

NCI-H1915 = system: NCI-H1915
Method in brief: as §1

PC-14 = system: PC-14
Method in brief: as §1

SK-MES-1 = system: SK-MES-1
Method in brief: as §1

CC(=O)O[C@@]12CO[C@@H]1C[C@H](O)[C@@]1(C)C(=O)[C@H](O)C3=C(C)[C@@H](OC(=O)[C@H](O)[C@@H](NC(=O)OC(C)(C)C)c4ccccc4)C[C@@](O)([C@@H](OC(=O)c4ccccc4)[C@H]21)C3(C)C [Docetaxel] + Nc1ncn([C@H]2C[C@H](O)[C@@H](CO)O2)c(=O)n1 [Decitabine] (partner 2 µM)
relative viability (NCI-H322M; first compound 0.0002 µM): 0.679
relative viability (NCI-H322M; first compound 0.000632 µM): 0.609
relative viability (NCI-H322M; first compound 0.002 µM): 0.613
relative viability (NCI-H322M; first compound 0.006325 µM): 0.653
relative viability (NCI-H322M; first compound 0.02 µM): 0.553
relative viability (NCI-H522; first compound 0.0002 µM): 0.641
relative viability (NCI-H522; first compound 0.000632 µM): 0.571
relative viability (NCI-H522; first compound 0.002 µM): 0.586
relative viability (NCI-H522; first compound 0.006325 µM): 0.448
relative viability (NCI-H522; first compound 0.02 µM): 0.377
relative viability (NCI-H1755; first compound 0.0002 µM): 0.772
relative viability (NCI-H1755; first compound 0.000632 µM): 0.788
relative viability (NCI-H1755; first compound 0.002 µM): 0.604
relative viability (NCI-H1755; first compound 0.006325 µM): 0.463
relative viability (NCI-H1755; first compound 0.02 µM): 0.507
relative viability (RERF-LC-KJ; first compound 0.0002 µM): 0.716
relative viability (RERF-LC-KJ; first compound 0.000632 µM): 0.542
relative viability (RERF-LC-KJ; first compound 0.002 µM): 0.232
relative viability (RERF-LC-KJ; first compound 0.02 µM): 0.146
relative viability (SW 900; first compound 0.0002 µM): 0.485
relative viability (SW 900; first compound 0.000632 µM): 0.344
relative viability (SW 900; first compound 0.002 µM): 0.323
relative viability (SW 900; first compound 0.006325 µM): 0.296
relative viability (SW 900; first compound 0.02 µM): 0.212
relative viability (NCI-H520; first compound 0.0002 µM): 0.454
relative viability (NCI-H520; first compound 0.000632 µM): 0.465
relative viability (NCI-H520; first compound 0.002 µM): 0.333
relative viability (NCI-H520; first compound 0.006325 µM): 0.249
relative viability (NCI-H3122; first compound 0.0002 µM): 0.441
relative viability (NCI-H3122; first compound 0.000632 µM): 0.409
relative viability (NCI-H3122; first compound 0.002 µM): 0.265
relative viability (NCI-H3122; first compound 0.006325 µM): 0.182
relative viability (NCI-H3122; first compound 0.02 µM): 0.126
relative viability (LXF-289; first compound 0.0002 µM): 0.383
relative viability (LXF-289; first compound 0.000632 µM): 0.382
relative viability (LXF-289; first compound 0.002 µM): 0.25
relative viability (LXF-289; first compound 0.006325 µM): 0.14
relative viability (LXF-289; first compound 0.02 µM): 0.118
relative viability (NCI-H441; first compound 0.0002 µM): 0.25
relative viability (NCI-H441; first compound 0.000632 µM): 0.234
relative viability (NCI-H441; first compound 0.002 µM): 0.178
relative viability (NCI-H441; first compound 0.006325 µM): 0.2
relative viability (NCI-H441; first compound 0.02 µM): 0.163
relative viability (LCLC-103H; first compound 0.0002 µM): 0.712
relative viability (LCLC-103H; first compound 0.000632 µM): 0.796
relative viability (LCLC-103H; first compound 0.002 µM): 0.761
relative viability (LCLC-103H; first compound 0.006325 µM): 0.713
relative viability (LCLC-103H; first compound 0.02 µM): 0.524
relative viability (NCI-H1355; first compound 0.0002 µM): 0.35
relative viability (NCI-H1355; first compound 0.000632 µM): 0.365
relative viability (NCI-H1355; first compound 0.002 µM): 0.286
relative viability (NCI-H1355; first compound 0.006325 µM): 0.276
relative viability (NCI-H1355; first compound 0.02 µM): 0.179
relative viability (NCI-H1792; first compound 0.0002 µM): 0.445
relative viability (NCI-H1792; first compound 0.000632 µM): 0.394
relative viability (NCI-H1792; first compound 0.002 µM): 0.376
relative viability (NCI-H1792; first compound 0.006325 µM): 0.172
relative viability (NCI-H1792; first compound 0.02 µM): 0.0755
relative viability (NCI-H1651; first compound 0.0002 µM): 0.458
relative viability (NCI-H1651; first compound 0.000632 µM): 0.547
relative viability (NCI-H1651; first compound 0.002 µM): 0.299
relative viability (NCI-H1651; first compound 0.006325 µM): 0.173
relative viability (NCI-H2347; first compound 0.0002 µM): 0.637
relative viability (NCI-H2347; first compound 0.000632 µM): 0.633
relative viability (NCI-H2347; first compound 0.002 µM): 0.644
relative viability (NCI-H2347; first compound 0.006325 µM): 0.51
relative viability (NCI-H2347; first compound 0.02 µM): 0.473
relative viability (NCI-H460; first compound 0.0002 µM): 0.443
relative viability (NCI-H460; first compound 0.002 µM): 0.061
relative viability (NCI-H460; first compound 0.006325 µM): 0.0383
relative viability (NCI-H460; first compound 0.02 µM): 0.0286
relative viability (NCI-H661; first compound 0.0002 µM): 0.519
relative viability (NCI-H661; first compound 0.000632 µM): 0.575
relative viability (NCI-H661; first compound 0.002 µM): 0.606
relative viability (NCI-H661; first compound 0.006325 µM): 0.358
relative viability (NCI-H661; first compound 0.02 µM): 0.343
relative viability (NCI-H727; first compound 0.0002 µM): 0.738
relative viability (NCI-H727; first compound 0.000632 µM): 0.895
relative viability (NCI-H727; first compound 0.002 µM): 0.709
relative viability (NCI-H727; first compound 0.006325 µM): 0.663
relative viability (NCI-H727; first compound 0.02 µM): 0.788
relative viability (NCI-H596; first compound 0.0002 µM): 1.02
relative viability (NCI-H596; first compound 0.000632 µM): 1.01
relative viability (NCI-H596; first compound 0.002 µM): 1.02
relative viability (NCI-H596; first compound 0.006325 µM): 0.639
relative viability (NCI-H596; first compound 0.02 µM): 0.372
relative viability (NCI-H1915; first compound 0.0002 µM): 0.245
relative viability (NCI-H1915; first compound 0.000632 µM): 0.25
relative viability (NCI-H1915; first compound 0.002 µM): 0.231
relative viability (NCI-H1915; first compound 0.006325 µM): 0.184
relative viability (NCI-H1915; first compound 0.02 µM): 0.124
relative viability (PC-14; first compound 0.0002 µM): 0.175
relative viability (PC-14; first compound 0.000632 µM): 0.107
relative viability (PC-14; first compound 0.002 µM): 0.0764
relative viability (PC-14; first compound 0.006325 µM): 0.0588
relative viability (PC-14; first compound 0.02 µM): 0.0313
relative viability (SK-MES-1; first compound 0.0002 µM): 0.375
relative viability (SK-MES-1; first compound 0.000632 µM): 0.381
relative viability (SK-MES-1; first compound 0.002 µM): 0.347
relative viability (SK-MES-1; first compound 0.02 µM): 0.164
